Measured values: ChEMBL document CHEMBL5385948, “Glucose Uptake-Stimulating Metabolites from Aerial Parts of Centaurea sicula” (J Nat Prod, 2024)
Calls of active or inactive are those of the source. No cut-off for these calls is given here.

Tests used:
HEK293 [1] = assay: Induction of glucose uptake in HEK293 cells assessed as increase in 2-NBDG uptake at 3 uM incubated for 48 hrs followed by treated with 2-DG in presence of EDTA by fluorescence assay; format: functional, cell-based; conditions: Homo sapiens
HEK293 [2] = assay: Induction of glucose uptake in HEK293 cells assessed as increase in 2-NBDG uptake at 3 uM incubated for 48 hrs followed by treated with 2-DG by fluorescence assay; format: functional, cell-based; conditions: Homo sapiens

Structure (SMILES) | Activity (HEK293 [1]) | Activity (HEK293 [2])
C=C(C(=O)O[C@H]1C/C(C)=C/CC/C(CO)=C/[C@H]2OC(=O)[C@@H](C)[C@H]12)[C@@H](O)CO | Active | Active
CC1(C)C(=O)O[C@]2(C)C=C1C[C@H](O)C2 | Active | Active
C/C1=C\CC/C(CO)=C/[C@@H](O)[C@H]2[C@H](C1)OC(=O)[C@H]2C | inactive | Active
COc1cc([C@@H]2OC[C@H]3C(=O)OC[C@H]32)ccc1O | inactive | Active
